These results are taken from US20080194539A1, “Phenyl Diazepane Carboxamides and Annelated Phenyl Piperazine Carboxamides Containing Oxygen and Used as Dopamine D3 Antagonists” (Schwarz Pharma AG, priority 2004, published 2008).

Data set [1] concerns the target T1, human D3 (Homo sapiens, UniProt P35462).
T1 construct: expressed in transfected cells
To be noted: compounds known from the prior art (WO 2004/004729), read-out: D3-bonding (Ki), comparative substance, cited from earlier work.

Data set [2] addresses T1, human D3. Briefly: Radioligand binding, human D3 in CHO cell membranes, [3H]spiperone. The protocol: (§1) The biological activities of the compounds according to the invention were determined in radioligand binding investigations. All radioligand experiments were performed according to methods described by us (Hübner, H. et al. J. Med. Chem. 2000, 43, 756-762). For the measurement of the affinities to the receptors of the D2-family membrane homogenates of Chinese hamster ovary cells (CHO cells) were used, which stably express the human D2long-, the human D2short- (Hayes, G. et al. Mol. Endocrinol. 1992, 6, 920-926), the human D3- (Sokoloff, P. et al. Eur. J. Pharmacol. 1992, 225, 331-337) or the human D4.4-receptor sub-type, (Asghari, V. J. Neurochem. 1995, 65, 1157-1165) respectively. Basically the binding assays took place by incubation of the receptor homogenates with the radioligand [^3H]spiperone and the compounds under investigation in various concentrations. Determination of the affinities to the D1-receptor took place with native membrane homogenates, obtained from porcine striatum, and the D1-selective radioligands [^3H]SCH 23390.

A further data set has as its target T2, human D4.4 (Homo sapiens, UniProt P21917).
T2 construct: expressed in transfected cells
T2 sequence (P21917 1-419): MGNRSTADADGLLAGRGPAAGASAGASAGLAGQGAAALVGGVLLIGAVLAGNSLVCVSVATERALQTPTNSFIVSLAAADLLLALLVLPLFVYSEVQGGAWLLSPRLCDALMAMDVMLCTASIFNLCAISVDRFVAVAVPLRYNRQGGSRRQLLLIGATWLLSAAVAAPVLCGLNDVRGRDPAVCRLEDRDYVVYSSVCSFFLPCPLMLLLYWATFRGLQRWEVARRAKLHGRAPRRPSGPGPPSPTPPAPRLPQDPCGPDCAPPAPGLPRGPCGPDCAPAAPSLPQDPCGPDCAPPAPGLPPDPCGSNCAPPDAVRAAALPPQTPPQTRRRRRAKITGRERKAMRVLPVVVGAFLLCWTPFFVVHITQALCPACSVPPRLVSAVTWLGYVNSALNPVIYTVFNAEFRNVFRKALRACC
Briefly: Radioligand binding, human D4.4 in CHO cell membranes, [3H]spiperone. To be noted: human D4.4 in CHO membranes, average of 2-6 experiments in triplicate, read-out: Receptor binding Ki D4. Here is the method: as §1

A further data set addresses T3, D1-receptor (Sus scrofa, UniProt P50130).
T3 construct: native membrane homogenates, obtained from porcine striatum; from tissue; host or cells: porcine striatum
Briefly: Radioligand binding, D1-receptor, porcine striatum membranes, [3H]SCH 23390. The settings on record: average of 2-6 experiments in triplicate. Here is the method: as §1

The next data set has as its target T4, human D2long (Homo sapiens, UniProt P14416).
T4 construct: expressed in transfected cells
Briefly: Radioligand binding, human D2long in CHO cell membranes, [3H]spiperone. The settings on record: human receptor in CHO membranes, average of 2-6 experiments in triplicate. Here is the method:
as §1

Another data set addresses T5, human D2short (Homo sapiens, UniProt P14416).
T5 construct: expressed in transfected cells
Briefly: Radioligand binding, human D2short in CHO cell membranes, [3H]spiperone. The settings on record: human receptor in CHO membranes, average of 2-6 experiments in triplicate. Here is the method:
as §1

The target of the next data set is porcine α1-receptor. Briefly: Radioligand binding, α1-receptor, porcine cortex membranes, [3H]prazosin. To be noted: average of 2-6 experiments in triplicate, read-out: Receptor binding Ki alpha1. The protocol: (§2) Measurement of the binding strengths of the compounds to the serotonin-receptor subtypes 5-HT1a and 5-HT2 was carried out according to methods described by us (Heindl, C. et al. Tetrahedron: Asymmetry 2003, 14, 3141-3152). For this we incubated porcine cortex-membrane preparations with the radioligands [^3H]8-OH-DPAT (for 5-HT1a) or [^3H]ketanserin (5-HT2) and the compounds in various concentrations. In the same way the affinity of the test compounds to the porcine α1-receptor was investigated, wherein porcine cortex-membrane preparations and the α1-selective radioligand [^3H]prazosin were used.

A further data set concerns the target T6, 5-HT2 (Sus scrofa, UniProt P50129).
T6 construct: we incubated porcine cortex-membrane preparations; from tissue; host or cells: porcine cortex
Briefly: Radioligand binding, 5-HT2, porcine cortex membranes, [3H]ketanserin. The settings on record: average of 2-6 experiments in triplicate, read-out: Receptor binding Ki 5-HT2. The protocol:
as §2

The target in another data set is T7, 5-HT1a (Sus scrofa, UniProt A0A4X1UTF5).
T7 construct: we incubated porcine cortex-membrane preparations; from tissue; host or cells: porcine cortex
T7 sequence (A0A4X1UTF5 1-422): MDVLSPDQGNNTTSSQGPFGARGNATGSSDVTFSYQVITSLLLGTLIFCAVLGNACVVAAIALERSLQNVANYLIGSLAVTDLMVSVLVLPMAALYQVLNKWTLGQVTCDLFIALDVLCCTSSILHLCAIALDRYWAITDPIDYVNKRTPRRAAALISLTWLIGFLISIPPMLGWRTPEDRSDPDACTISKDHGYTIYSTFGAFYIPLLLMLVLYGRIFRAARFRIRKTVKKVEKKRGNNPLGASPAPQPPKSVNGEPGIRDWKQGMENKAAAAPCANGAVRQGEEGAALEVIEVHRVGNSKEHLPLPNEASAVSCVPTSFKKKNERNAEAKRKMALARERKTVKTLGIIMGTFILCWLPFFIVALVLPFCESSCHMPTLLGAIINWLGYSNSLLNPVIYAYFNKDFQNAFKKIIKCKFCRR
Briefly: Radioligand binding, 5-HT1a, porcine cortex membranes, [3H]8-OH-DPAT. The settings on record: porcine 5-HT1a, average of 2-6 experiments in triplicate, read-out: Receptor binding Ki 5-HT1. The protocol: as §2

Another data set concerns the target T8, dopamine D3 receptor (Homo sapiens, UniProt P35462).
T8 construct: expressed in transfected cells
Briefly: Mitogenesis assay, [3H]thymidine incorporation in D3 receptor-expressing cells. The data set is classed as cell-based. The settings on record: for Agonistic activity: with reference to the maximum effect of the full agonist quinpirol; for pEC50: dose-effect curve, seven concentrations in quadruplicate. The protocol: Here various concentrations of the compounds under investigation were incubated with D3 receptor-expressing cells and then the receptor-mediated stimulation of the mitogenesis rate was measured by incorporation of the radioactive marker [^3H]thymidine.

Setting [3] is: Table 1b, read-out: D3-bonding (Ki), substance according to the invention.
The mark [4] stands for this setting: Table 1c, read-out: D3-bonding (Ki), substance according to the invention.
[5] abbreviates: Table 1a, read-out: D3-bonding (Ki), substance according to the invention.
The mark [6] stands for this setting: human receptor in CHO membranes, [3H]spiperone, average of 2-6 experiments in triplicate, read-out: Receptor binding Ki D3.

pEC50, pKi: −log10 of the molar value. Like-named read-outs stand apart in the source and are kept apart here.

T5 sequence (P14416 1-414 isoform P14416-2): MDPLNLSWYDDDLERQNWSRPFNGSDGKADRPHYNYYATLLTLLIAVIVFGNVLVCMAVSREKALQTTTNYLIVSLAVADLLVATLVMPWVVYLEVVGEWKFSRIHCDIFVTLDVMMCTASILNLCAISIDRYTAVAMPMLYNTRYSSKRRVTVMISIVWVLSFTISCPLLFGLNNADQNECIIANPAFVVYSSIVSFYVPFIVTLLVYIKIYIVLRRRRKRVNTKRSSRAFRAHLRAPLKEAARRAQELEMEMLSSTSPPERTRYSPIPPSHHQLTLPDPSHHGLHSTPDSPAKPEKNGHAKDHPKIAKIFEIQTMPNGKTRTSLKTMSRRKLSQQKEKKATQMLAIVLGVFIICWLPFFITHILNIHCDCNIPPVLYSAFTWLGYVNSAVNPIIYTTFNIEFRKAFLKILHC
T3 sequence (P50130 whole entry): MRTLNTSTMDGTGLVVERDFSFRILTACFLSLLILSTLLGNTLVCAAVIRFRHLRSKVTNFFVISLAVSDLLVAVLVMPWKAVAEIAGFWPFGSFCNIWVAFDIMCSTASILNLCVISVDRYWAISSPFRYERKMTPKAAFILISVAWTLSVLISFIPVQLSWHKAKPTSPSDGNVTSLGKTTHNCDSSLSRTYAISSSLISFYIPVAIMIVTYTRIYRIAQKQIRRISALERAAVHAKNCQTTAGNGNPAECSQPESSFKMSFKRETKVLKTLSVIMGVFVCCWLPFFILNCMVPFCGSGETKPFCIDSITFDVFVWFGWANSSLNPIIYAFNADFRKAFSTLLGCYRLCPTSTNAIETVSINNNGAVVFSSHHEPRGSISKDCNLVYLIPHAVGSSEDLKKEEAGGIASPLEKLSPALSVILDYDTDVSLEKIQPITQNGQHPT
T1 sequence (P35462 whole entry): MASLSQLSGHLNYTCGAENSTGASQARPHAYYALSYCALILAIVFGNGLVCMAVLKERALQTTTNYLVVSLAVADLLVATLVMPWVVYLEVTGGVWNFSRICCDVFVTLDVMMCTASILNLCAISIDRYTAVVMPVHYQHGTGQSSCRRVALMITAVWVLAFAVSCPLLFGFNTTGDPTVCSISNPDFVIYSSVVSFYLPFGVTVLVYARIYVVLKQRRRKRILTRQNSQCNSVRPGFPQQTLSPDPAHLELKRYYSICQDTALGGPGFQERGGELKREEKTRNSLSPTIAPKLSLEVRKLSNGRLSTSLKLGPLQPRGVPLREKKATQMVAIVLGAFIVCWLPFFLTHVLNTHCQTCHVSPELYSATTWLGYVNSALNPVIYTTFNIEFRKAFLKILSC
T8 sequence (P35462 whole entry): as above
T4 sequence (P14416 whole entry): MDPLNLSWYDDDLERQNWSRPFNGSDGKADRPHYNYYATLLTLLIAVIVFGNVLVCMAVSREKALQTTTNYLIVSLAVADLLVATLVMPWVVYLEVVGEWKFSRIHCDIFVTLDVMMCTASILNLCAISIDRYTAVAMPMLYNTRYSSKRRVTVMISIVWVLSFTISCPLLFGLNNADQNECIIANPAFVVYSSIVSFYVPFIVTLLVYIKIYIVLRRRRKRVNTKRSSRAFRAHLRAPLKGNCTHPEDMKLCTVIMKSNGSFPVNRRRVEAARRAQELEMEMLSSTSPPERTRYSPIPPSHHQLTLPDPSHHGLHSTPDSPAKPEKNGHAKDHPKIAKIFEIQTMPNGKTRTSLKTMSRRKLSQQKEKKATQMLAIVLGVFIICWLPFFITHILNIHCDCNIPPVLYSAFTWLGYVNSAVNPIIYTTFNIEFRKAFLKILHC
T6 sequence (P50129 whole entry): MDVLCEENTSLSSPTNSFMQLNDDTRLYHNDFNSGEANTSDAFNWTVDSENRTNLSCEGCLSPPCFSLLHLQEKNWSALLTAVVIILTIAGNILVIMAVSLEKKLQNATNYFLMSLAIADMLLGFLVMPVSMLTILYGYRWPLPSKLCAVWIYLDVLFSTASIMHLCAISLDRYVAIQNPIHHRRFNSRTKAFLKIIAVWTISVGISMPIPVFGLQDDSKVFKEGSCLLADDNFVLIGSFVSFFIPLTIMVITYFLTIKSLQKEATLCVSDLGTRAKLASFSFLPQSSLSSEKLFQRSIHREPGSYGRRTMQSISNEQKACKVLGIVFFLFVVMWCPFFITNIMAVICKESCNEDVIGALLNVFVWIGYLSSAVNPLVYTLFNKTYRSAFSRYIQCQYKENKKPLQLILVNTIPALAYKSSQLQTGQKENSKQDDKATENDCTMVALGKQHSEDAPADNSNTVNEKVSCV

By pKi is commonly meant the Ki on a negative log10 scale, so that one unit is a factor of ten. With `N#Cc1ccc2sc(C(=O)NCCCCN3CCN(c4cccc(Cl)c4Cl)CC3)cc2c1`, the pKi on human D3 [1] (Table 1c) was 9.60.
Turning to “N-(4-(4-(2,3,4,5-tetrahydrobenzo[b]oxepin-9-yl)piperazin-1-yl)butyl)-5-bromobenzofuran-2-ylcarbamide [Example 15]”, the pKi at human D3 [2] (setting [3]) was 9.96.
Usually melting point stands for the temperature of the solid-liquid transition. Molecule `O=C(NCCCCN1CCN(c2cccc3c2OCCCC3)CC1)c1cc2ccccc2s1` [Example 12, N-(4-(4-(2,3,4,5-tetrahydrobenzo[b]oxepin-9-yl)piperazin-1-yl)butyl)benzo[b]thiophen-2-ylcarbamide] displayed a melting point of 124 °C. At human D3 [2] (setting [4]), the pKi is 10.01.
With `O=C(NCCCCN1CCN(c2cccc3c2OCCC3)CC1)c1cc2ccccc2[nH]1` [Example 4, N-(4-(4-(chroman-8-yl)piperazin-1-yl)butyl)indol-2-ylcarbamide], the pKi at human D4.4 was 7.47; on D1-receptor it was 6.54; on human D2long, 7.38; at human D2short, 7.66; on porcine α1-receptor, 8.64; on 5-HT2 it was 6.96. Also, the pKi was 7.70 at 5-HT1a, 9.77 on human D3 [2] (setting [5]) and 9.77 at human D3 [2] (setting [6]). On dopamine D3 receptor, this molecule had an Agonistic activity of 0%.
Take `N#Cc1ccc2cc(C(=O)NCCCCN3CCN(c4cccc(Cl)c4Cl)CC3)[nH]c2c1`: the pKi on human D3 [1] (Table 1a) was 9.46.
With `O=C(NCCCCN1CCN(c2cccc3c2OCC3)CC1)c1cc2ccccc2[nH]1` [Example 2, N-(4-(4-(2,3-dihydrobenzofuran-7-yl)piperazin-1-yl)butyl)indol-2-ylcarbamide], the pKi at human D4.4 was 7.66; on D1-receptor, 6.52; at human D2long it was 7.35; at human D2short, 7.57; at porcine α1-receptor, 8.70; on 5-HT2, 6.96. The pKi at 5-HT1a is 7.52; at human D3 [2] (setting [5]), 9.46; at human D3 [2] (setting [6]), 9.80. In addition, the Agonistic activity at dopamine D3 receptor was found to be 0%.
Broadly, the pEC50 is the EC50 on a negative log10 scale, so that one unit is a factor of ten. Low readings indicate a high EC50, high ones a low EC50. As for `O=C(NCCCCN1CCN(c2cccc3c2OCCC3)CC1)c1cc2ccccc2s1` [Example 3, N-(4-(4-(chroman-8-yl)piperazin-1-yl)butyl)benzo[b]thiophen-2-ylcarbamide], the melting point turned out to be 134 °C. The pKi at human D4.4 is 7.30. Moreover, at D1-receptor, the pKi is 6.52. The molecule also showed a pKi at human D2long of 6.96. On human D2short, this molecule had a pKi of 7.08. Also, on porcine α1-receptor, the pKi was 8.34. In addition, the pKi at 5-HT2 is 7.11. At 5-HT1a, the pKi is 7.77. Also, the pKi at human D3 [2] (setting [4]) is 9.80. On human D3 [2] (setting [6]), the pKi is 9.46. Further, on dopamine D3 receptor, the negative logarithm of the EC50 (pEC50) was 8.74 and the Agonistic activity worked out at 38%.
For `O=C(NCCCCN1CCN(c2cccc3c2OCCCC3)CC1)c1cc2ccccc2o1` [Example 14, N-(4-(4-(2,3,4,5-tetrahydrobenzo[b]oxepin-9-yl)piperazin-1-yl)butyl)benzofuran-2-ylcarbamide], the pKi at human D3 [2] (setting [3]) was 10.05.
For `N#Cc1ccc2sc(C(=O)NCCCCN3CCN(c4cccc5c4OCCCC5)CC3)cc2c1` [Example 13, N-(4-(4-(2,3,4,5-tetrahydrobenzo[b]oxepin-9-yl)piperazin-1-yl)butyl)-5-cyanobenzo[b]thiophen-2-ylcarbamide], at human D3 [2] (setting [4]), the pKi is 10.01.
Take `O=C(NCCCCN1CCN(c2cccc3c2OCC3)CC1)c1cc2ccccc2s1` [Example 1, N-(4-(4-(2,3-dihydrobenzofuran-7-yl)piperazin-1-yl)butyl)benzo[b]thiophen-2-ylcarbamide]: the pKi was 7.19 on human D4.4; 6.59 at D1-receptor; 7.14 on human D2long; 7.30 on human D2short; 8.38 at porcine α1-receptor; 7.00 at 5-HT2. The pKi at 5-HT1a is 7.74; on human D3 [2] (setting [4]), 9.51; on human D3 [2] (setting [6]), 9.51. Further, the pEC50 at dopamine D3 receptor is 8.49. On dopamine D3 receptor, the Agonistic activity turned out to be 42%.
Consider `N#Cc1ccc2cc(C(=O)NCCCCN3CCN(c4cccc5c4OCCCC5)CC3)[nH]c2c1` [Example 17, N-(4-(4-(2,3,4,5-tetrahydrobenzo[b]oxepin-9-yl)piperazin-1-yl)butyl)-6-cyanoindol-2-ylcarbamide], for which the pKi on human D3 [2] (setting [5]) is 10.12.
The same measure, in the same setting: the result for `O=C(NCCCCN1CCN(c2cccc3c2OCCCC3)CC1)c1cc2ccccc2[nH]1` [Example 16, N-(4-(4-(2,3,4,5-tetrahydrobenzo[b]oxepin-9-yl)piperazin-1-yl)butyl)indol-2-ylcarbamide] reads 10.28.
